IC50 data for 2 compounds are collected here from BindingDB's records for doi:10.1016/s0960-894x(01)00765-x (Bristol Myers Squibb, 2002).

The target of this experiment is T1, Neuropeptide Y receptor type 1 (Homo sapiens, UniProt P25929).
T1 sequence (P25929 whole entry): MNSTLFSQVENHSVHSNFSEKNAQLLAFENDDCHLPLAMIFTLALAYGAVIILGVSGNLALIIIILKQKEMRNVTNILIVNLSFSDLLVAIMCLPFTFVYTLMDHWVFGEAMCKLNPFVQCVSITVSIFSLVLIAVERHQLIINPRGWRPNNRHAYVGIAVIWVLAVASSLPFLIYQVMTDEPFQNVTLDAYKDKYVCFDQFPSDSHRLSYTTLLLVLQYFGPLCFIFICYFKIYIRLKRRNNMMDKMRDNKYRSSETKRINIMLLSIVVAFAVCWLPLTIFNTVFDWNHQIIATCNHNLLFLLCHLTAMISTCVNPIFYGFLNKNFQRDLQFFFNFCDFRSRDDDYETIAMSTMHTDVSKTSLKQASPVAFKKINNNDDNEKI
Put plainly: ChEBML_143683. From the text: Binding affinity against Neuropeptide Y receptor type 1 using I-PYY as a radioligand in human neuroblastoma SK-N-MC cells

Molecules are shown by their SMILES. Bounds are passed on as bounds.

The compound `COC(=O)C1=C(C)N=C(C)C(C(=O)OC)N1c1cccc(NC(=S)NCCCN2CCN(C3CCCCC3)CC2)c1` (configuration not stated) [1-(3-{3-[3-(4-Cyclohexyl-piperazin-1-yl)-propyl]-thioureido}-phenyl)-3,5-dimethyl-1,4-dihydro-pyrazine-2,6-dicarboxylic acid dimethyl ester] registered an IC50 of over 1000 nM.
The same measure for `COC(=O)C1=C(C)N=C(C)C(C(=O)OC)N1c1cccc(NC(=S)NCCCN2CCC(C(C)(C)C)CC2)c1` (configuration not stated) [1-(3-{3-[3-(4-tert-Butyl-piperidin-1-yl)-propyl]-thioureido}-phenyl)-3,5-dimethyl-1,4-dihydro-pyrazine-2,6-dicarboxylic acid dimethyl ester]: over 1000 nM.
